# According to paper PMC7613998, “Development of selective inhibitors of phosphatidylinositol 3-kinase C2α” (Nature Chemical Biology, 2022):
# Legend:
# Assay in all cases: biochemical
# Set-up in all cases: SelectScreen Z'-LYTE purified kinase panel, per cent inhibition, mean of two points
# Details in all cases: (μM)=Km app
# PRKCE (PKC epsilon) = molecular target: T1, PRKCE (PKC epsilon) (Homo sapiens, UniProt Q02156)
# T1 sequence (Q02156 1-737): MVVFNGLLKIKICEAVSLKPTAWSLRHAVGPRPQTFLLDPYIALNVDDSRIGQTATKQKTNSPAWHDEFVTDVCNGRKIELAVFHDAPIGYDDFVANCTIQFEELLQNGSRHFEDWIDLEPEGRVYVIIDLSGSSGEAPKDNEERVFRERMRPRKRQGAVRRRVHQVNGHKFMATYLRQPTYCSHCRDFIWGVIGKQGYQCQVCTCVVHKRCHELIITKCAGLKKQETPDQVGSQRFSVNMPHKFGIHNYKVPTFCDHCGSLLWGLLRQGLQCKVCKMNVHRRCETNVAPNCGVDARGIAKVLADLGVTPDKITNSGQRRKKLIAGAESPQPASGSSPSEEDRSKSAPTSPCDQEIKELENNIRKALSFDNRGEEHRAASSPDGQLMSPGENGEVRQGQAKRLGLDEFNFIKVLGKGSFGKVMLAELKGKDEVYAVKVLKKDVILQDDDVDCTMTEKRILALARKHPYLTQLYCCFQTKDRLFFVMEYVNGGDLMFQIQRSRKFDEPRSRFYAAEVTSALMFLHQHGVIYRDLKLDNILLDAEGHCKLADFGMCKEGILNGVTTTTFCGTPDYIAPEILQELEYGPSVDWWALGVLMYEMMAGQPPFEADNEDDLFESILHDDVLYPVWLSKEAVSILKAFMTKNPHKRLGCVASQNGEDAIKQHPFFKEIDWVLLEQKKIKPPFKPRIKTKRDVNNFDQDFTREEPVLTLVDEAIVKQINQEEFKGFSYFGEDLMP
# KDR (VEGFR2) = KDR (VEGFR2) (Homo sapiens, UniProt P35968)
# GSK3B (GSK3 beta) = GSK3B (GSK3 beta) (Homo sapiens, UniProt P49841)
# Sequence of GSK3B (GSK3 beta) (P49841 whole entry): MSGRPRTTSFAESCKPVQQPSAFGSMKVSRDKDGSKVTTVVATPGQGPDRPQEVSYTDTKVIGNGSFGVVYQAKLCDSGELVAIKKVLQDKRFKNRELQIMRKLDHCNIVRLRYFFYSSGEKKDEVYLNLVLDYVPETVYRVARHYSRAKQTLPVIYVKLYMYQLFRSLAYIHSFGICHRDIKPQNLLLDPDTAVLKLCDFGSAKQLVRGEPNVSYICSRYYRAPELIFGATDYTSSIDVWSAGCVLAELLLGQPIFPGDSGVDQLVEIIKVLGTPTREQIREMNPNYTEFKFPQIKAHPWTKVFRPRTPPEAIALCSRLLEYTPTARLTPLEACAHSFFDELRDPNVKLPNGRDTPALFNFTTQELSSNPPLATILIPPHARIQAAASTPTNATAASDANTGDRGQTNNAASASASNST
# ALK = ALK (Homo sapiens, UniProt Q9UM73)
# Sequence of ALK (Q9UM73 whole entry): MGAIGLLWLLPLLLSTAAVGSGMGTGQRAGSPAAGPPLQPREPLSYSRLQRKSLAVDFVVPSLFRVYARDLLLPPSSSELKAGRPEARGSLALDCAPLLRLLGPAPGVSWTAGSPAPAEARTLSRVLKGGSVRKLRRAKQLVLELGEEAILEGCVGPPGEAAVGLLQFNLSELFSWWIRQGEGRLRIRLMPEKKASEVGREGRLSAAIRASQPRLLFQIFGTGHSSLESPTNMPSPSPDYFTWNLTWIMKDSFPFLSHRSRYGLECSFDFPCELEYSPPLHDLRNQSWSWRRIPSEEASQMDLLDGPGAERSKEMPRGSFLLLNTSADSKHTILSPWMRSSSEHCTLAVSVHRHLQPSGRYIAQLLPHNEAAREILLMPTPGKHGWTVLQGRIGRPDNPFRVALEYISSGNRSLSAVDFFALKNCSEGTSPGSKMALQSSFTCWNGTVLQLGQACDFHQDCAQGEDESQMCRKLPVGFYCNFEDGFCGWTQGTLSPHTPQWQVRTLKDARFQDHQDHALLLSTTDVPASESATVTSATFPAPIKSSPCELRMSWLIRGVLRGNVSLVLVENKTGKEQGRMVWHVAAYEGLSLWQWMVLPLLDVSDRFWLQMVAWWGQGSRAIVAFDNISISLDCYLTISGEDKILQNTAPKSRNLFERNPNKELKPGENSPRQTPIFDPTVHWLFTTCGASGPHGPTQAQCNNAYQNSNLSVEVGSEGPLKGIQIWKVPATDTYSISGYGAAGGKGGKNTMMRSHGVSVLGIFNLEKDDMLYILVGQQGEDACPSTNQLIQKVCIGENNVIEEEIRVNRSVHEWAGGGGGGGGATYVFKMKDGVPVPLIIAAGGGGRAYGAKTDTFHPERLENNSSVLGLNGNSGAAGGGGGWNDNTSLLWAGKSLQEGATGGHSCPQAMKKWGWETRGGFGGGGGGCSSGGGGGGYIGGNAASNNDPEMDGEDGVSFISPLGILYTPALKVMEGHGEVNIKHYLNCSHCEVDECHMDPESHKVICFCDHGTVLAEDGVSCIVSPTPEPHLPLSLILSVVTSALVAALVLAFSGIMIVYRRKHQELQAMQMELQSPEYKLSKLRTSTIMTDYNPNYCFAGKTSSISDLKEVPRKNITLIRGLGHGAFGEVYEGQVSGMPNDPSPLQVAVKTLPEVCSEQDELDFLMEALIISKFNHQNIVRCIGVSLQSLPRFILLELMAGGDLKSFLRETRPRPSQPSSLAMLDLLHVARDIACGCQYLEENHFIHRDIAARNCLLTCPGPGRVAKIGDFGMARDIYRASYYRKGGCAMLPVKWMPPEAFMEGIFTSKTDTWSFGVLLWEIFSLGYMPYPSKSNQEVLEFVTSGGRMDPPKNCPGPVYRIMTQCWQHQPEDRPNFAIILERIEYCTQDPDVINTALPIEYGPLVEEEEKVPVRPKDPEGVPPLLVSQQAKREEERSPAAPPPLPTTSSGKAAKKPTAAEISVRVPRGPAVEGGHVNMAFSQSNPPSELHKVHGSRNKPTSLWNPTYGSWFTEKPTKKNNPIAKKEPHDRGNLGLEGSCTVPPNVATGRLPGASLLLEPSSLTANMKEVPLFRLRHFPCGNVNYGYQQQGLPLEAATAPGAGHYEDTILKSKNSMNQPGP
# MET (cMet) = MET (cMet) (Homo sapiens, UniProt P08581)
# JAK2 = JAK2 (Homo sapiens, UniProt O60674)
# Sequence of JAK2 (O60674 whole entry): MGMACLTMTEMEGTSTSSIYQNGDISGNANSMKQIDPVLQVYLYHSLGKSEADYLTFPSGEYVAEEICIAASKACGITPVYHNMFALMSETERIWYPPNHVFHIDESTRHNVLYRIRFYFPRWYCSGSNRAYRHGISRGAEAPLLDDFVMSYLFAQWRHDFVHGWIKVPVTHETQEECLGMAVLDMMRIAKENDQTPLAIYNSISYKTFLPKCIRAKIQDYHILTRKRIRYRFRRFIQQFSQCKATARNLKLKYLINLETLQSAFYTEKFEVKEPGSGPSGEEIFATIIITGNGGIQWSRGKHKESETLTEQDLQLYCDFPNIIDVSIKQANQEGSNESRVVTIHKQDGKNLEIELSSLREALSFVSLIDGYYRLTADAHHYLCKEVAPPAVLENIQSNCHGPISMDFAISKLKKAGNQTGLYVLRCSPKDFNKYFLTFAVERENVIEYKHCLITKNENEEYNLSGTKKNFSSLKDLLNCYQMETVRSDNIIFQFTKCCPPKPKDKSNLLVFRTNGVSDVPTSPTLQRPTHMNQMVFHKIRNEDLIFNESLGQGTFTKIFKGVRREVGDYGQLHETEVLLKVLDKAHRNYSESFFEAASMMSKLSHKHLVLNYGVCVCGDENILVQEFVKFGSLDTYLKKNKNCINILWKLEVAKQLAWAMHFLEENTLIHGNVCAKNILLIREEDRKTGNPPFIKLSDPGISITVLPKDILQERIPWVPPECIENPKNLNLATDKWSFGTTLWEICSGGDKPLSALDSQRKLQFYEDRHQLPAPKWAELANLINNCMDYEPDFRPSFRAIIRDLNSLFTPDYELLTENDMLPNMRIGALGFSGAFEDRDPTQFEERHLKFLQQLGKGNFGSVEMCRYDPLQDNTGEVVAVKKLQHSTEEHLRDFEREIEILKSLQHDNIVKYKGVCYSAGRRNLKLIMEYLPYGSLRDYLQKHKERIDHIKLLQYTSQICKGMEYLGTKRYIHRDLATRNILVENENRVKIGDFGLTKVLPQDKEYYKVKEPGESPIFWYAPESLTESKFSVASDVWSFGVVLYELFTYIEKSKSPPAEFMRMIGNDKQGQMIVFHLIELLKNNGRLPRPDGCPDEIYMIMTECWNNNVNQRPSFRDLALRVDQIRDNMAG
# PDGFRA (PDGFR alpha) = PDGFRA (PDGFR alpha) (Homo sapiens, UniProt P16234)
# Sequence of PDGFRA (PDGFR alpha) (P16234 whole entry): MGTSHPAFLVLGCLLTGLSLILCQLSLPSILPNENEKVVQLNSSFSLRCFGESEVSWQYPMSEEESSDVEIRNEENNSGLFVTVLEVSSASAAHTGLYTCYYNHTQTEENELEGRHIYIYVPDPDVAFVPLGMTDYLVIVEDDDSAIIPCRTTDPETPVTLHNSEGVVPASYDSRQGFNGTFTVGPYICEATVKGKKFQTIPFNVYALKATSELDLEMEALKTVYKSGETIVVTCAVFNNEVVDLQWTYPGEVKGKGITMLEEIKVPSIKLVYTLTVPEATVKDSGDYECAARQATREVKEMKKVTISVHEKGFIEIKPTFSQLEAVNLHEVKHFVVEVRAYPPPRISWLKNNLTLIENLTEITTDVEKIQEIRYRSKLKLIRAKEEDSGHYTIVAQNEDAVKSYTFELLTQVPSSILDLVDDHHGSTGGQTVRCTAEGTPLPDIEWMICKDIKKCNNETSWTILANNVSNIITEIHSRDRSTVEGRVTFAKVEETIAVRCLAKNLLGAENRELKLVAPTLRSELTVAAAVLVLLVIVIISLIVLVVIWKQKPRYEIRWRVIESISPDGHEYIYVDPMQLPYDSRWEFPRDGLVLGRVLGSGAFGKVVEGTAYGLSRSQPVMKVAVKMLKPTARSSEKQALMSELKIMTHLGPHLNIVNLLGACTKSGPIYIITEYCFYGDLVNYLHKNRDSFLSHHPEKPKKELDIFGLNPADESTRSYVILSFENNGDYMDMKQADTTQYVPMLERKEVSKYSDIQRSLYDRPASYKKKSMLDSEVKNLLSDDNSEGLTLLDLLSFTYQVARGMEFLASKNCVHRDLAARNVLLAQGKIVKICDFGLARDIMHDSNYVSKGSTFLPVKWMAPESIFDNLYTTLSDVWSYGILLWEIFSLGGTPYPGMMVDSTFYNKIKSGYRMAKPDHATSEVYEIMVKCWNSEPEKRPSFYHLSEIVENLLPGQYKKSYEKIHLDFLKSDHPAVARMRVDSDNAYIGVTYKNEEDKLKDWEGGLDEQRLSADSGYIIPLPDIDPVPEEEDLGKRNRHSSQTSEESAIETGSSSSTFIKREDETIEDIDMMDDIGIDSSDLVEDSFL
# DCAMKL1 (DCLK1) = molecular target: T2, DCAMKL1 (DCLK1) (Homo sapiens, UniProt O15075)
# T2 sequence (O15075 1-740): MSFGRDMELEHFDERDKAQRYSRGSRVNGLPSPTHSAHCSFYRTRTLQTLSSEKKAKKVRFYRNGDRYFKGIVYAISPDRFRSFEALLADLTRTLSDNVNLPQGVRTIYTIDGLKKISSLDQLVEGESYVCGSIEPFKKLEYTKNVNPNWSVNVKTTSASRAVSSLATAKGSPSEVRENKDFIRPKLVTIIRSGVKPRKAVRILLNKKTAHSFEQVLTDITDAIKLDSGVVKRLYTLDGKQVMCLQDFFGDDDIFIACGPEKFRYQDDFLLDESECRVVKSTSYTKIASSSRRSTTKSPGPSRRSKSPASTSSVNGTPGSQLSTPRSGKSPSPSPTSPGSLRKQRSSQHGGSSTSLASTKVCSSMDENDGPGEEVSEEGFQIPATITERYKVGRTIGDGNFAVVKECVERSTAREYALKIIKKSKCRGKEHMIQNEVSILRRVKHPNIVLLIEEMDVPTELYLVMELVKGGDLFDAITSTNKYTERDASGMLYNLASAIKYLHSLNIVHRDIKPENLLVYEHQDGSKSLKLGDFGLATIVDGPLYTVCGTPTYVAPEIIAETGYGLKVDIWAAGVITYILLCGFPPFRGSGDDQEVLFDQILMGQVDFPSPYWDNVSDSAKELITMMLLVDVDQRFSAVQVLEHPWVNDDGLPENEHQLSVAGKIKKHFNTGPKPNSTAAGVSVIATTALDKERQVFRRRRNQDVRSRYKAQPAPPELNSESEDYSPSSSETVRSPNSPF
# IRAK4 = molecular target: T3, IRAK4 (Homo sapiens, UniProt Q9NWZ3)
# T3 sequence (Q9NWZ3 1-460): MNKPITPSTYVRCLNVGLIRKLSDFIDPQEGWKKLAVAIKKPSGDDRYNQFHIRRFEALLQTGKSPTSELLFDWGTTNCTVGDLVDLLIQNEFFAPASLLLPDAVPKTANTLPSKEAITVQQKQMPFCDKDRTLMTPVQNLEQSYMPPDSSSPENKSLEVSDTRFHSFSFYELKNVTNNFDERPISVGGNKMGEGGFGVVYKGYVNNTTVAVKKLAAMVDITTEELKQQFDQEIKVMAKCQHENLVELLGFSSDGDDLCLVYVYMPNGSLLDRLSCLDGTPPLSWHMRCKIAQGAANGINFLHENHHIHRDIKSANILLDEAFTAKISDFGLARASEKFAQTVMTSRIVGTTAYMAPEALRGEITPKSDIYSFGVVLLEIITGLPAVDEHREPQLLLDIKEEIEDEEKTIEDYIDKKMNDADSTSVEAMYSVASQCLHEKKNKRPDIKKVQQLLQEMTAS
inhibition at 1 µM (PRKCE (PKC epsilon)) [%],inhibition at 3 µM (PRKCE (PKC epsilon)) [%],inhibition at 10 µM (PRKCE (PKC epsilon)) [%],inhibition at 1 µM (KDR (VEGFR2)) [%],inhibition at 3 µM (KDR (VEGFR2)) [%],inhibition at 10 µM (KDR (VEGFR2)) [%],inhibition at 1 µM (GSK3B (GSK3 beta)) [%],inhibition at 3 µM (GSK3B (GSK3 beta)) [%],inhibition at 10 µM (GSK3B (GSK3 beta)) [%],inhibition at 1 µM (ALK) [%],inhibition at 3 µM (ALK) [%],inhibition at 10 µM (ALK) [%],inhibition at 1 µM (MET (cMet)) [%],inhibition at 3 µM (MET (cMet)) [%],inhibition at 10 µM (MET (cMet)) [%],inhibition at 1 µM (JAK2) [%],inhibition at 3 µM (JAK2) [%],inhibition at 10 µM (JAK2) [%],inhibition at 1 µM (PDGFRA (PDGFR alpha)) [%],inhibition at 3 µM (PDGFRA (PDGFR alpha)) [%],SMILES,other results
-11.8,23.9,-9.1,8.19,4.57,-0.425,2.87,1.81,2.24,8.08,8.57,8.82,4.52,-1.8,1.23,0.852,-8.02,-7.27,8.94,1.9,"O=C(CSc1nc2nccnc2c(=O)n1CCc1ccccc1)Nc1nccs1 [compound 1, PITCOIN1]",inhibition at 10 µM (PDGFRA (PDGFR alpha)): 4.84%; inhibition at 1 µM (DCAMKL1 (DCLK1)): -1.36%; inhibition at 3 µM (DCAMKL1 (DCLK1)): -3.92%; inhibition at 10 µM (DCAMKL1 (DCLK1)): 1.03%; inhibition at 1 µM (IRAK4): 10.7%; inhibition at 3 µM (IRAK4): 2.87%; inhibition at 10 µM (IRAK4): 6.89%
-17.8,-1.73,-22.6,0.654,10.7,9.78,-0.953,-1.98,-4.59,17.2,10.4,10.9,4.73,8.1,-2.17,-4.04,-2.51,-3.7,1.77,20.1,"CS(=O)(=O)Nc1cccc(-c2csc(NC(=O)CSc3nc4nccnc4c(=O)n3CCc3ccccc3)n2)c1 [compound 3, PITCOIN3]",inhibition at 10 µM (PDGFRA (PDGFR alpha)): 16.3%; inhibition at 1 µM (DCAMKL1 (DCLK1)): -7.05%; inhibition at 3 µM (DCAMKL1 (DCLK1)): -11.7%; inhibition at 10 µM (DCAMKL1 (DCLK1)): 13.7%; inhibition at 1 µM (IRAK4): 15.2%; inhibition at 3 µM (IRAK4): 4.2%; inhibition at 10 µM (IRAK4): 9.92%
